According to ChEMBL document CHEMBL1649318, “Chromosomally encoded blaCMY-2 located on a novel SXT/R391-related integrating conjugative element in a Proteus mirabilis clinical isolate” (2010):
Values after ≈ are worked out from the molar mass of the structure shown.

Columns and labels:
Proteus mirabilis [1] = test: Antimicrobial activity against Proteus mirabilis TUM4660 by broth dilution method; assay type: functional
Escherichia coli [2] = test: Antimicrobial activity against Escherichia coli TUM4670 by broth dilution method; assay type: functional
Escherichia coli [3] = test: Antimicrobial activity against Escherichia coli TUM4672 by broth dilution method
Escherichia coli [4] = test: Antimicrobial activity against Escherichia coli ML4909 by broth dilution method; assay type: functional
Escherichia coli [5] = test: Antimicrobial activity against Escherichia coli ML4901 by broth dilution method; assay type: functional
Proteus mirabilis [6] = test: Antimicrobial activity against Proteus mirabilis TUM4660 by broth dilution method in presence of beta-lactamase inhibitor clavulanic acid; assay type: functional
Escherichia coli [7] = test: Antimicrobial activity against Escherichia coli TUM4670 by broth dilution method in presence of beta-lactamase inhibitor clavulanic acid
Escherichia coli [8] = test: Antimicrobial activity against Escherichia coli TUM4672 by broth dilution method in presence of beta-lactamase inhibitor clavulanic acid
Escherichia coli [9] = test: Antimicrobial activity against Escherichia coli ML4909 by broth dilution method in presence of beta-lactamase inhibitor clavulanic acid; assay type: functional
Escherichia coli [10] = test: Antimicrobial activity against Escherichia coli ML4901 by broth dilution method in presence of beta-lactamase inhibitor clavulanic acid; assay type: functional
Proteus mirabilis [11] = test: Antimicrobial activity against Proteus mirabilis TUM4660 by broth dilution method in presence of beta-lactamase inhibitor Tazobactam; assay type: functional
Escherichia coli [12] = test: Antimicrobial activity against Escherichia coli TUM4670 by broth dilution method in presence of beta-lactamase inhibitor Tazobactam; assay type: functional
Escherichia coli [13] = test: Antimicrobial activity against Escherichia coli TUM4672 by broth dilution method in presence of beta-lactamase inhibitor Tazobactam; assay type: functional
Escherichia coli [14] = test: Antimicrobial activity against Escherichia coli ML4909 by broth dilution method in presence of beta-lactamase inhibitor Tazobactam; assay type: functional
Escherichia coli [15] = test: Antimicrobial activity against Escherichia coli ML4901 by broth dilution method in presence of beta-lactamase inhibitor Tazobactam; assay type: functional
Proteus mirabilis [16] = test: Antimicrobial activity against Proteus mirabilis TUM4660 by disk diffusion method in presence of 300 ug 3-aminophenyl-boronic acid; assay type: functional

| Compound | MIC (Proteus mirabilis [1]) | MIC (Escherichia coli [2]) | MIC (Escherichia coli [3]) | MIC (Escherichia coli [4]) | MIC (Escherichia coli [5]) | MIC (Proteus mirabilis [6]) | MIC (Escherichia coli [7]) | MIC (Escherichia coli [8]) | MIC (Escherichia coli [9]) | MIC (Escherichia coli [10]) | MIC (Proteus mirabilis [11]) | MIC (Escherichia coli [12]) | MIC (Escherichia coli [13]) | MIC (Escherichia coli [14]) | MIC (Escherichia coli [15]) | diameter of the inhibition zone (DIZ) (Proteus mirabilis [16]) |
| --- | --- | --- | --- | --- | --- | --- | --- | --- | --- | --- | --- | --- | --- | --- | --- | --- |
| COc1cc(Cc2cnc(N)nc2N)cc(OC)c1OC [TRIMETHOPRIM] | 4 µg/mL (≈ 13.8 µM) | ≤ 0.06 µg/mL | ≤ 0.06 µg/mL | 0.12 µg/mL (≈ 0.413 µM) | ≤ 0.06 µg/mL |  |  |  |  |  |  |  |  |  |  |  |
| GENTAMICIN | 1 µg/mL | 1 µg/mL |  | 2 µg/mL | 2 µg/mL |  |  |  |  |  |  |  |  |  |  |  |
| O=C(O)c1cn(C2CC2)c2cc(N3CCNCC3)c(F)cc2c1=O [CIPROFLOXACIN] | 0.12 µg/mL (≈ 0.362 µM) | ≤ 0.06 µg/mL | ≤ 0.06 µg/mL | ≤ 0.06 µg/mL | ≤ 0.06 µg/mL |  |  |  |  |  |  |  |  |  |  |  |
| CO[C@@]1(NC(=O)Cc2cccs2)C(=O)N2C(C(=O)O)=C(COC(N)=O)CS[C@@H]21 [CEFOXITIN] | 128 µg/mL (≈ 299 µM) | 128 µg/mL (≈ 299 µM) | > 128 µg/mL | 4 µg/mL (≈ 9.36 µM) | 2 µg/mL (≈ 4.68 µM) |  |  |  |  |  |  |  |  |  |  |  |
| CO/N=C(\C(=O)N[C@@H]1C(=O)N2C(C(=O)O)=C(COC(C)=O)CS[C@H]12)c1csc(N)n1 [CEFOTAXIME] | 8 µg/mL (≈ 17.6 µM) | 16 µg/mL (≈ 35.1 µM) | 32 µg/mL (≈ 70.3 µM) | ≤ 0.06 µg/mL | ≤ 0.06 µg/mL | 16 µg/mL | 32 µg/mL | 64 µg/mL | ≤ 0.06 µg/mL | ≤ 0.06 µg/mL |  |  |  |  |  |  |
| CC1(C)S[C@@H]2[C@H](NC(=O)[C@H](N)c3ccc(O)cc3)C(=O)N2[C@H]1C(=O)O [AMOXICILLIN] | > 128 µg/mL | > 128 µg/mL | > 128 µg/mL | 2 µg/mL (≈ 5.47 µM) | 4 µg/mL (≈ 10.9 µM) | > 128 µg/mL | > 128 µg/mL | > 128 µg/mL | 2 µg/mL | 4 µg/mL |  |  |  |  |  |  |
| CCN1CCN(C(=O)N[C@@H](C(=O)N[C@@H]2C(=O)N3[C@@H]2SC(C)(C)[C@@H]3C(=O)O)c2ccccc2)C(=O)C1=O [PIPERACILLIN] | > 128 µg/mL | > 128 µg/mL | > 128 µg/mL | 2 µg/mL (≈ 3.86 µM) | 2 µg/mL (≈ 3.86 µM) |  |  |  |  |  | 16 µg/mL | > 128 µg/mL | > 128 µg/mL | 2 µg/mL | 2 µg/mL |  |
| CO/N=C(\C(=O)N[C@@H]1C(=O)N2C(C(=O)[O-])=C(C[N+]3(C)CCCC3)CS[C@H]12)c1csc(N)n1 | 2 µg/mL (≈ 4.16 µM) | 1 µg/mL (≈ 2.08 µM) | 2 µg/mL (≈ 4.16 µM) | ≤ 0.06 µg/mL |  |  |  |  |  |  |  |  |  |  |  |  |
| C[C@@H](O)[C@H]1C(=O)N2C(C(=O)O)=C(SCCNC=N)C[C@H]12 [IMIPENEM ANHYDROUS] | 8 µg/mL (≈ 26.7 µM) | 0.25 µg/mL (≈ 0.835 µM) | 0.25 µg/mL (≈ 0.835 µM) |  |  |  |  |  |  |  |  |  |  |  |  |  |
| CC(C)(O/N=C(\C(=O)N[C@@H]1C(=O)N2C(C(=O)[O-])=C(C[n+]3ccccc3)CS[C@H]12)c1csc(N)n1)C(=O)O [CEFTAZIDIME] | 16 µg/mL (≈ 29.3 µM) | 128 µg/mL (≈ 234 µM) | 128 µg/mL (≈ 234 µM) | 0.25 µg/mL (≈ 0.457 µM) | 0.25 µg/mL (≈ 0.457 µM) | 16 µg/mL | 32 µg/mL | 64 µg/mL | 0.12 µg/mL | ≤ 0.06 µg/mL |  |  |  |  |  | >5 mm |
